Test results from patent US11827622B2, “Crystalline forms of imidacloprid and methods of use thereof” (New York University, priority 2020, dated 2023).

Tests used:
Drosophila melanogaster = test: Lethality (knockdown time) on contact with IMI polymorph microcrystals in petri dish, fruit flies; assay type: in vivo; settings: for KT50 (95% CI): median knockdown time, 2.0 mg microcrystals per 35 mm dish; for times faster-acting than Form I: ratio of KT50 values
Protocol: (§1) Lethality measurements for IMI polymorphs. Microcrystals of IMI Forms I, IV, VI, and IX were prepared by grinding respective single crystals using a mortar and pestle. Their compositions were then analyzed by powder X-ray diffraction (PXRD). Lethality measurements were performed in triplicate for each solid-state form, each accompanied by three controls (no insecticide). 2.0 mg of microcrystals was added to a 35 mm diameter polystyrene petri dish, which was subsequently shaken to disperse the microcrystals throughout the petri dish. Microcrystals was added to a polystyrene petri dish (2.000 mg microcrystals per 35 mm diameter dish for fruit flies; 0.100 mg microcrystals per 100 mm diameter dish for mosquitoes), which was subsequently shaken to disperse the microcrystals throughout the petri dish. Adult mosquitoes (Ae. aegypti, A. quadrimaculatus or C. quinquefasciatus) or fruit flies (D. melanogaster) were sedated with carbon dioxide and 30 female mosquitoes or 20 flies were transferred to each petri dish. The top of the dish was then placed over the bottom and the motion of the insects was recorded with a video camera (Sony HDR-CX455). The knockdown time was measured for each individual insect, with knockdown associated with an insect laying on the bottom surface of the petri dish in a supine position without moving from its original position after 10 seconds.
(§2) Statistical analyses. Logistic regression of knockdown-time curves was preformed to obtain the median knockdown time (KT50) of the test flies and mosquitoes, the 95% confidence intervals (CI), slopes, and standard errors (SE) using Qcal software.
IMI Forms IX, VI, IV were selected for lethality comparison with the commercial Form I, collectively representing a quartet spanning a wide range of free energies. […] A video camera was used to record the knockdown times—a proxy for lethality—for each insect. KT50 values, the times required for 50% of the insects to become immobile and supine, were calculated by logistic regression of knockdown-time curves (FIGS. 34A-34P). Shorter KT50 values correspond to greater lethality. Accordingly, Forms IX, VI and IV were 5.7, 2.5 and 1.8 times faster-acting than Form I.

Aedes aegypti = test: Lethality (knockdown time) on contact with IMI polymorph microcrystals in petri dish, Aedes mosquitoes; assay type: in vivo; settings: for KT50 (95% CI): Aedes females, median knockdown time, 0.100 mg microcrystals per 100 mm dish
Protocol: as §1, §2

[1] = system: Anopheles quadrimaculatus; test: Lethality (knockdown time) on contact with IMI polymorph microcrystals in petri dish, Anopheles mosquitoes; assay type: in vivo; settings: Anopheles females; median knockdown time; 0.100 mg microcrystals per 100 mm dish
Protocol: as §1, §2

Culex quinquefasciatus = test: Lethality (knockdown time) on contact with IMI polymorph microcrystals in petri dish, Culex mosquitoes; assay type: in vivo; settings: Culex females; median knockdown time; 0.100 mg microcrystals per 100 mm dish
Protocol: as §1, §2

[2] = assay type: physicochemical
Protocol: IMI polymorphs exposed in open air at ambient temperature are typically stable for at least 6 months. Although the polymorphic forms were distinguishable by visual inspection (from their interference colors between crossed polarizers and morphologies), their identity and any phase transformations were always corroborated by micro-Raman spectroscopy and PXRD. Form IX held at 95° C. on a microscope hot stage in air transformed to Form V in 3 min, which then converted to Form I at 110° C. in 2 min. Form I also can nucleate directly on the surface of Form IX at T>70° C. Form IX crystals confined between glass slides nucleate Form I, V or VI within Form IX at 80° C. within 1 min. […] Form VI transforms to III when they were in contact at 110° C.

Aedes = test: Lethality measurement of IMI vapor, Aedes; assay type: in vivo, Aedes aegypti
Protocol: (§3) Crystalline insecticide was added to an opened glass vial tapped to the bottom of a petri dish, which was subsequently covered with porous polyester substrate. Female Aedes and Drosophila were sedated with carbon dioxide and were transferred onto the porous substrate. An inverted petri dish was then placed over the polyester substrate to seal the assembly. The motion of the Aedes and Drosophila was recorded with a video camera. An opened glass vial containing 2.0 mg IMI microcrystals was tapped to the bottom of the petri dish (FIGS. 35A-35E).

Drosophila = test: Lethality measurement of IMI vapor, Drosophila; assay type: in vivo, Drosophila melanogaster
Protocol: as §3

[3] = 2.0 mg IMI microcrystals in opened glass vial under porous polyester substrate

Q: What does the source list for `O=[N+]([O-])NC1=NCCN1Cc1ccc(Cl)nc1` [Form I, 1-[(6-chloro-3-pyridinyl)-methyl]-N-nitro-2-imidazolidinimine, reference compound]?
A: KT50 (95% CI) (Drosophila melanogaster): 562 (536-589) min; KT50 (95% CI) (Aedes aegypti): 643 (621-664) min; KT50 (95% CI) [1]: 524 (515-534) min; KT50 (95% CI) (Culex quinquefasciatus): 573 (568-581) min; thermodynamic stability [2]: the most thermodynamically stable crystal form

Q: Which “KT50 (95% CI)” value (Drosophila melanogaster) does the source give for `O=[N+]([O-])N=C1NCCN1Cc1ccc(Cl)nc1` [Form IV, 1-[(6-chloro-3-pyridinyl)-methyl]-N-nitro-2-imidazolidinimine] here?
A: Its value is 321 (302-343) min.

Q: And the “times faster-acting than Form I” value (Drosophila melanogaster)?
A: Its value is 1.8 times.

Q: And the “KT50 (95% CI)” value (Aedes aegypti)?
A: The value was 335 (329-342) min.

Q: What about the “KT50 (95% CI)” value [1] of the same compound?
A: Its value is 220 (216-224) min.

Q: And the “KT50 (95% CI)” value (Culex quinquefasciatus)?
A: The value was 311 (309-313) min.

Q: Which “KT50 (95% CI)” value (Drosophila melanogaster) does the source give for `O=[N+]([O-])NC1=NCCN1Cc1ccc(Cl)nc1` [Form IX, 1-[(6-chloro-3-pyridinyl)-methyl]-N-nitro-2-imidazolidinimine] here?
A: The value was 99 (93-105) min.

Q: What about the “times faster-acting than Form I” value (Drosophila melanogaster) of the same compound?
A: Its value is 5.7 times.

Q: What about the “KT50 (95% CI)” value (Aedes aegypti) of the same compound?
A: The value was 70 (68-71) min.

Q: What about the “KT50 (95% CI)” value [1] of the same compound?
A: Its value is 84 (82-86) min.

Q: And the “KT50 (95% CI)” value (Culex quinquefasciatus)?
A: The value was 89 (88-91) min.

Q: And the “kinetic stability against transformation to other polymorphs” value [2]?
A: Its value is “kinetically stable against transformations to other polymorphs”.

Q: And the “time to nucleation of Form I, V or VI within the form” value ([2]; crystals confined between glass slides, 80° C.)?
A: Its value is ≤ 1 min.

Q: And the “time of transformation to Form V” value ([2]; held at 95° C. on microscope hot stage in air)?
A: Its value is 3 min.

Q: Which “time of conversion to Form I” value ([2]; at 110° C.) does the source give for `O=[N+]([O-])N=C1NCCN1Cc1ccc(Cl)nc1` [Form V, 1-[(6-chloro-3-pyridinyl)-methyl]-N-nitro-2-imidazolidinimine] here?
A: The value was 2 min.

Q: Which results are given for `O=[N+]([O-])N=C1NCCN1Cc1ccc(Cl)nc1` [Form VI, 1-[(6-chloro-3-pyridinyl)-methyl]-N-nitro-2-imidazolidinimine]?
A: KT50 (95% CI) (Drosophila melanogaster): 223 (210-238) min; times faster-acting than Form I (Drosophila melanogaster): 2.5 times; KT50 (95% CI) (Aedes aegypti): 152 (147-157) min; KT50 (95% CI) [1]: 143 (141-144) min; KT50 (95% CI) (Culex quinquefasciatus): 192 (189-195) min

Q: What does the source list for `O=[N+]([O-])N=C1NCCN1Cc1ccc(Cl)nc1` [IMI, 1-[(6-chloro-3-pyridinyl)-methyl]-N-nitro-2-imidazolidinimine]?
A: time within which all insects were knocked down (Drosophila melanogaster; direct contact with the same amount of IMI microcrystals in petri dishes): ≤ 10 h; time within which all insects were knocked down (Aedes aegypti; Aedes, direct contact with the same amount of IMI microcrystals in petri dishes): ≤ 10 h; effect of exposure to IMI vapor (Aedes; [3]): remained viable with no nerve firing symptoms; effect of exposure to IMI vapor (Aedes; after 12 hours): remained viable with no nerve firing symptoms; effect of exposure to IMI vapor (Drosophila; [3]): remained viable with no nerve firing symptoms; effect of exposure to IMI vapor (Drosophila; after 12 hours): remained viable with no nerve firing symptoms
